Values quoted from earlier work as cited in US9642863B2, “Methods for treating chronic or unresolvable pain and/or increasing the pain threshold in a subject and pharmaceutical compositions for use therein” (White Mountain Pharma, Inc., priority 2010, dated 2017).

Columns and labels:
[1] = test system: women with fibromyalgia; settings: female fibromyalgia patients, transdermal testosterone
[2] = test system: rats; settings: treatment with testosterone
[3] = genotypic females dosed with testosterone, 36 months
[4] = test system: female-to-male transsexuals; settings: doses of testosterone at or above the male reference range
[5] = test system: chronic pain subjects on maintenance opioids; settings: four patients, testosterone adjunctive to primary opioid therapy, anecdotal

C[C@]12CC[C@H]3[C@@H](CCC4=CC(=O)CC[C@@]43C)[C@@H]1CC[C@@H]2O [testosterone]
fibromyalgia muscle tender point pain [1]: significantly improve
pain responses to the formalin test [2]: decreased pain responses
stable serum total testosterone levels [3]: about 620+/−130 ng/dL
side effects [4]: develop hirsutism and male-like increased risk for cardiovascular disease and diabetes
quality of life [5]: improved quality of life
